Assay results published in ChEMBL document CHEMBL3779861, “Selective Inhibition of CBX6: A Methyllysine Reader Protein in the Polycomb Family” (ACS Med Chem Lett, 2016).
Non-standard residues stand in square brackets, D forms with d. Residues, ends and D or L forms follow the SMILES beside them. *: point of attachment. X1 = O=C(O)c1cc(NC(=S)*)ccc1-c1c2ccc(=O)cc-2oc2cc(O)ccc12; Biotin = O=C1N[C@H]2[C@H](CS[C@H]2CCCCC(=O)*)N1; Lys(Me3) = C[N+](C)(C)CCCC[C@H](N)C(=O)O; Benzoyl(4-Br) = O=C(c1ccc(Br)cc1)*; Abu = CC[C@H](N)C(=O)O

Experiments:
[1] = biological target: T1, Chromobox protein homolog 7 (Homo sapiens, UniProt O95931); assay: Binding affinity to N-terminal His6-tagged human CBX7 (8 to 62) expressed in Escherichia coli BL21 using FITC-peptide-3 as competitive binding probe by fluorescence polarization assay
T1 sequence (O95931 whole entry): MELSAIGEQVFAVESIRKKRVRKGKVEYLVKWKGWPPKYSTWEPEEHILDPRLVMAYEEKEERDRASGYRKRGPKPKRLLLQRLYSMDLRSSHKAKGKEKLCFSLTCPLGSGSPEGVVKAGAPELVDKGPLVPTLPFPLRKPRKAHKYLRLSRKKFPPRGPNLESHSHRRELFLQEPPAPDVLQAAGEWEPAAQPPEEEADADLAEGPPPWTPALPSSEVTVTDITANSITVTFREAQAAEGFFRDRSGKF

[2] = biological target: T2, Chromobox protein homolog 6 (Homo sapiens, UniProt O95503); assay: Binding affinity to N-terminal His6-tagged human CBX6 (8 to 65 residues) expressed in Escherichia coli BL21 by surface plasmon resonance assay
T2 sequence (O95503 whole entry): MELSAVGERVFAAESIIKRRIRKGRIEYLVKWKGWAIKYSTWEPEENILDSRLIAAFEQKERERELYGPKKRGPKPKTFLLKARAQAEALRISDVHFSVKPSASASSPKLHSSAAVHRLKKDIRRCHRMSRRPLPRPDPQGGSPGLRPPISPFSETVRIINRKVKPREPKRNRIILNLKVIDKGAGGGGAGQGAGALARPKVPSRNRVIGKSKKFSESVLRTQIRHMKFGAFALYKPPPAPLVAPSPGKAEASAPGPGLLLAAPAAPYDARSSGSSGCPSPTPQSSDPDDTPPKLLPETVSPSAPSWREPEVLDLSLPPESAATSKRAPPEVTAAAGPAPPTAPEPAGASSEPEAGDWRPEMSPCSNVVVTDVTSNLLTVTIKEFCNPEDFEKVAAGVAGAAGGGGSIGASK

[3] = biological target: T1, Chromobox protein homolog 7; assay: Binding affinity to N-terminal His6-tagged human CBX7 (8 to 62 residues) expressed in Escherichia coli BL21 by surface plasmon resonance assay
[4] = biological target: Chromobox protein homolog 7 (Homo sapiens, UniProt O95931, V13A); assay: Binding affinity to human CBX7 V13A mutant expressed in Escherichia coli BL21 by surface plasmon resonance assay
Chromobox protein homolog 7 (Homo sapiens, UniProt O95931, V13A), sequence (O95931 whole entry V13A): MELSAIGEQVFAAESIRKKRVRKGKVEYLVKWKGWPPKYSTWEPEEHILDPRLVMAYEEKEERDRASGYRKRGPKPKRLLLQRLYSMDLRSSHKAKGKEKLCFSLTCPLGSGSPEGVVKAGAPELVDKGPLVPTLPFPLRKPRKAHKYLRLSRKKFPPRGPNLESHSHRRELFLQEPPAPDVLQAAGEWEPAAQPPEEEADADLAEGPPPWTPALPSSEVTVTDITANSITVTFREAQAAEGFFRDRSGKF

[5] = biological target: Chromobox protein homolog 1 (Homo sapiens, UniProt P83916)
Chromobox protein homolog 1, sequence (P83916 whole entry): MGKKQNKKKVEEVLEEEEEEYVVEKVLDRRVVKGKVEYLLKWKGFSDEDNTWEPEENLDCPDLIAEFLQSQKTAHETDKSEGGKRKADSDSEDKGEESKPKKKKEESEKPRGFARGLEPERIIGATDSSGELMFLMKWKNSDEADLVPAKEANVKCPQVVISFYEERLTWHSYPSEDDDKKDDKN

[6] = biological target: T3, Chromobox protein homolog 2 (Homo sapiens, UniProt Q14781); assay: Binding affinity to N-terminal His6-tagged human CBX2 (8 to 62) expressed in Escherichia coli BL21 using FITC-peptide-3 as competitive binding probe by fluorescence polarization assay
T3 sequence (Q14781 whole entry): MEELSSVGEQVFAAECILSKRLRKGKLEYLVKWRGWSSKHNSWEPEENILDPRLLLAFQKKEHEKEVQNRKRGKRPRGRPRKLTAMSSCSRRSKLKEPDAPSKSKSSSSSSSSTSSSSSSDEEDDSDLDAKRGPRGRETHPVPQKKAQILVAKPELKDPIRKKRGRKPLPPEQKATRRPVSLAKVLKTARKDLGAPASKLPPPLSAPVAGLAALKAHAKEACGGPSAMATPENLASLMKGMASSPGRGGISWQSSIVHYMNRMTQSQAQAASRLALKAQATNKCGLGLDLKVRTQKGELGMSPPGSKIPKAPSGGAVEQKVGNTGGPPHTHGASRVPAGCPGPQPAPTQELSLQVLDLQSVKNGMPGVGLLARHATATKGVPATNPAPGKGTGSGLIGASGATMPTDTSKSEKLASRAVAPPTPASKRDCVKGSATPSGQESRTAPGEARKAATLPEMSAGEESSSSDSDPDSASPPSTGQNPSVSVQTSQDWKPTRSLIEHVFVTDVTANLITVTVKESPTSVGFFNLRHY

[7] = biological target: T4, E3 SUMO-protein ligase CBX4 (Homo sapiens, UniProt O00257); assay: Binding affinity to N-terminal His6-tagged human CBX4 (8 to 65 residues) expressed in Escherichia coli BL21 using FITC-peptide-3 as competitive binding probe by fluorescence polarization assay
T4 sequence (O00257 whole entry): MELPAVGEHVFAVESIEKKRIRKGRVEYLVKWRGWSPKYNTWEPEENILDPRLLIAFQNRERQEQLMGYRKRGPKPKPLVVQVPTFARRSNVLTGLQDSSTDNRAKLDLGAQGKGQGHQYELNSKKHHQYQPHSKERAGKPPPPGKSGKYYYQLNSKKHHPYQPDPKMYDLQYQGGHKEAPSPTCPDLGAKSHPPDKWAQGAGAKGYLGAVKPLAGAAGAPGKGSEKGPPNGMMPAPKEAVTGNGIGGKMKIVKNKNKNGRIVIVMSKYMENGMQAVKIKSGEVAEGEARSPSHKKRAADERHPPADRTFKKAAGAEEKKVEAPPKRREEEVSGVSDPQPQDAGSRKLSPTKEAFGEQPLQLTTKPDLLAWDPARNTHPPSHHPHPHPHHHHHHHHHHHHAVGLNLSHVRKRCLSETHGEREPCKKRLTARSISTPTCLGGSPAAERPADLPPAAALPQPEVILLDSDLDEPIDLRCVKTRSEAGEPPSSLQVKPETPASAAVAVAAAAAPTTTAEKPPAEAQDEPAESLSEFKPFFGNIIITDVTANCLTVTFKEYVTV

[8] = biological target: T2, Chromobox protein homolog 6; assay: Binding affinity to N-terminal His6-tagged human CBX6 (8 to 65 residues) expressed in Escherichia coli BL21 using FITC-peptide-3 as competitive binding probe by fluorescence polarization assay
[9] = biological target: T5, Chromobox protein homolog 8 (Homo sapiens, UniProt Q9HC52); assay: Binding affinity to N-terminal His6-tagged human CBX8 (8 to 61 residues) expressed in Escherichia coli BL21 using FITC-peptide-3 as competitive binding probe by fluorescence polarization assay
T5 sequence (Q9HC52 whole entry): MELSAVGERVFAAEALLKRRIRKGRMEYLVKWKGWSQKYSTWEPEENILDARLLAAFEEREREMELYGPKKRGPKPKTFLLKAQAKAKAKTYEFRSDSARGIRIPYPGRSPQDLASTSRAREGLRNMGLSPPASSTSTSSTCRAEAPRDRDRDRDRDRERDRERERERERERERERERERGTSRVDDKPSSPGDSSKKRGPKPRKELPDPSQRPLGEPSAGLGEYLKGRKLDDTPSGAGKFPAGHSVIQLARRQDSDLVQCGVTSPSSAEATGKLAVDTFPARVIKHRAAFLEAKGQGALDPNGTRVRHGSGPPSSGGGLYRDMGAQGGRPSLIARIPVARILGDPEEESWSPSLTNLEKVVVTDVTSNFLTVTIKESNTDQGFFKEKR

| SMILES | IC50 [1] [nM] | Kd [2] [nM] | Kd [3] [nM] | Kd [4] [nM] | Kd [1] [nM] | Kd [5] [nM] | Kd [6] [nM] | Kd [7] [nM] | Kd [8] [nM] | Kd [9] [nM] |
| --- | --- | --- | --- | --- | --- | --- | --- | --- | --- | --- |
| C[C@H](NC(=O)[C@H](Cc1ccccc1)NC(=O)c1ccc(Br)cc1)C(=O)N[C@@H](Cc1ccc(O)cc1)C(=O)N[C@@H](CCCC[N+](C)(C)C)C(=O)N[C@@H](CO)C(N)=O ({Benzoyl(4-Br)}-FAY[Lys(Me3)]S-NH2) | 1700 |  |  |  |  |  |  |  |  |  |
| C[C@H](NC(=O)[C@H](Cc1ccccc1)NC(=O)c1ccc(Br)cc1)C(=O)N[C@@H](Cc1ccc(O)cc1)C(=O)N[C@@H](CCCC[N+](C)(C)C)C(=O)N[C@@H](CO)C(=O)N[C@@H](CCC(=O)O)C(=O)N[C@@H](CCCCNC(=O)CCCC[C@@H]1SC[C@@H]2NC(=O)N[C@@H]21)C(N)=O ({Benzoyl(4-Br)}-FAY[Lys(Me3)]SEK(Biotin)-NH2) |  | 110 | 160 | 290 |  |  |  |  |  |  |
| CC(C)[C@H](NC(=O)[C@H](Cc1ccccc1)NC(=O)c1ccc(Br)cc1)C(=O)N[C@@H](Cc1ccc(O)cc1)C(=O)N[C@@H](CCCC[N+](C)(C)C)C(=O)N[C@@H](CO)C(=O)N[C@@H](CCC(=O)O)C(=O)N[C@@H](CCCCNC(=O)CCCC[C@@H]1SC[C@@H]2NC(=O)N[C@@H]21)C(N)=O ({Benzoyl(4-Br)}-FVY[Lys(Me3)]SEK(Biotin)-NH2) |  | 910 | 34000 | 24000 |  |  |  |  |  |  |
| CC(C)[C@H](NC(=O)[C@H](Cc1ccccc1)NC(=O)c1ccc(Br)cc1)C(=O)N[C@@H](Cc1ccc(O)cc1)C(=O)N[C@@H](CCCC[N+](C)(C)C)C(=O)N[C@@H](CO)C(=O)N[C@@H](CCC(=O)O)C(=O)N[C@@H](CCCCNC(=S)Nc1ccc(-c2c3ccc(=O)cc-3oc3cc(O)ccc23)c(C(=O)O)c1)C(N)=O ({Benzoyl(4-Br)}-FVY[Lys(Me3)]SEK(X1)-NH2) |  |  |  |  | 5300 | 78400 | 17600 | 15500 | 900 | 6000 |
| CC[C@H](NC(=O)[C@H](Cc1ccccc1)NC(=O)c1ccc(Br)cc1)C(=O)N[C@@H](Cc1ccc(O)cc1)C(=O)N[C@@H](CCCC[N+](C)(C)C)C(=O)N[C@@H](CO)C(=O)N[C@@H](CCC(=O)O)C(=O)N[C@@H](CCCCNC(=S)Nc1ccc(-c2c3ccc(=O)cc-3oc3cc(O)ccc23)c(C(=O)O)c1)C(N)=O ({Benzoyl(4-Br)}-F[Abu]Y[Lys(Me3)]SEK(X1)-NH2) |  |  |  |  | 400 | 75000 | 1600 | 800 | 800 | 1000 |
| C[C@H](NC(=O)[C@H](Cc1ccccc1)NC(=O)c1ccc(Br)cc1)C(=O)N[C@@H](Cc1ccc(O)cc1)C(=O)N[C@@H](CCCC[N+](C)(C)C)C(=O)N[C@@H](CO)C(=O)N[C@@H](CCC(=O)O)C(=O)N[C@@H](CCCCNC(=S)Nc1ccc(-c2c3ccc(=O)cc-3oc3cc(O)ccc23)c(C(=O)O)c1)C(N)=O ({Benzoyl(4-Br)}-FAY[Lys(Me3)]SEK(X1)-NH2) |  |  |  |  | 100 | 5500 | 300 | 200 | 300 | 1000 |
